Values quoted from earlier work in patent US20110224196A1, “TREATMENT OF O[…] APNEA SYNDROME WITH A COMBINATION OF A CARBONIC ANHYDRASE INHIBITOR AND AN […] AGENT” (Vivus, Inc., priority 2010, published 2011).

NC(=O)C[S+]([O-])C(c1ccccc1)c1ccccc1 (stereo not shown) [Modafinil, 2-[(diphenylmethy)sulfinyl]-N-acetamide]
solubility in acetone (acetone): sparingly or slightly soluble | solubility in cyclohexane (cyclohexane): insoluble | solubility in methanol (methanol): sparingly or slightly soluble | solubility in water (water): insoluble
